Data as given in patent publication US3965109A, “Certain aryl amino pyridines” (priority 1971, dated 1976).

Key:
[1] = tested on: Puccinia recondita (wheat); experiment: Fungicidal test against foliar disease A (foliage spray plus soil drench); format: in vivo; settings: 100 ppm spray and drench; 10 days
[2] = tested on: Phytophthora infestans (tomato); format: in vivo; settings: 100 ppm spray and drench; 3 days
[3] = tested on: Plasmopara viticola (vine); experiment: Fungicidal test against foliar disease C (foliage spray plus soil drench); format: in vivo; settings: 100 ppm spray and drench; 10 days
Uncinula necator (vine) = experiment: Fungicidal test against foliar disease D (foliage spray plus soil drench); format: in vivo; settings: 100 ppm spray and drench; 10 days
[4] = tested on: Piricularia oryzae (rice); format: in vivo; settings: 100 ppm spray and drench; 7 days
[5] = tested on: Tetranychus telarius (red spider mites, adults); experiment: Pest toxicity test; format: in vivo; settings: 0.1% by weight; French bean; 3 days
[6] = tested on: Tetranychus telarius (red spider mites, eggs); experiment: Pest toxicity test; format: in vivo; settings: 0.1% by weight; French bean; 3 days
Aphis fabae = experiment: Pest toxicity test; format: in vivo; settings: 0.1% by weight; broad bean; 2 days
Megoura viceae = experiment: Pest toxicity test; format: in vivo; settings: 0.1% by weight; broad bean; 2 days
[7] = tested on: Aedes aegypti (mosquito larvae); experiment: Pest toxicity test; format: in vivo; settings: 0.01% by weight; water; 1 day
[8] = tested on: Aedes aegypti (mosquito adults); experiment: Pest toxicity test; format: in vivo; settings: 0.01% by weight; plywood; 1 day
[9] = tested on: Musca domestica (houseflies); experiment: Pest toxicity test, contact test; format: in vivo; settings: 0.1% by weight; milk/sugar; 2 days; flies sprayed directly
[10] = tested on: Pieris brassicae (cabbage white caterpillars); experiment: Pest toxicity test; format: in vivo; settings: 0.1% by weight, 2 days
[11] = tested on: Plutella maculipennis (diamond back moth larvae); experiment: Pest toxicity test; format: in vivo; settings: in vivo
[12] = tested on: Phaedon cochleariae (mustard beetles); experiment: Pest toxicity test; format: in vivo; settings: in vivo
[13] = tested on: Meloidogyne incognita (nematodes); experiment: Pest toxicity test; format: in vivo; settings: 0.01% by weight; water; 1 day
[14] = tested on: Agrobacterium tumifaciens; experiment: Antibacterial agar test (B1); format: cell-based; settings: 50 ppm; 5 days
[15] = tested on: Corynebacterium michiganense; experiment: Antibacterial agar test (B2); format: cell-based; settings: 50 ppm; 5 days
Description: (§1) This Example illustrates the activity of compounds used as the active ingredients of compositions according to the invention against a variety of plant bacterial diseases and fungal post-harvest saprophytic diseases. In a test for such activity, 5 milligrams of the compound to be tested was dissolved or suspended in 10 ml. of acetone and enough of this solution or suspension was added to 18 ml. of nutrient agar (for the bacterial diseases) or 16 ml. of 2% malt agar (for the fungal diseases) to give a final concentration of 50 parts per million of the compound under test. A streptomycin preparation (2 ml. containing 100 units per ml.) was added to the malt agar to prevent bacterial contamination of the fungal tests.
(§2) The agar preparations were dried overnight in Petri dishes and inoculated the following morning with the bacterial or fungal diseases using a multipoint inoculator. The antibacterial activity was assessed after 5 days and the antifungal activity after 6 days. The results of the tests are set out in Table 16 (anti bacterial activity) and Table 17 (antifungal activity). The results are graded as in Example 1 above.

Xanthomonas malvacearum = experiment: Antibacterial agar test (B3); format: cell-based; settings: 50 ppm; 5 days
Description: as §1, §2

Erwinia carotovora = experiment: Antibacterial agar test (B4); format: cell-based; settings: 50 ppm; 5 days
Xanthomonas oryzae = format: cell-based; settings: 50 ppm; 5 days
Pseudomonas syringae = experiment: Antibacterial agar test (B6); format: cell-based; settings: 50 ppm; 5 days
Streptomyces scabies = experiment: Antibacterial agar test (B7); format: cell-based; settings: 50 ppm; 5 days
[16] = tested on: Venturia inaequalis (apple); experiment: Fungicidal test against foliar disease G (foliage spray plus soil drench); format: in vivo; settings: 100 ppm spray and drench; 21 days
Description: This Example illustrates the fungicidal properties of compounds used as active ingredients in the compositions of the invention. The compounds were tested against a wide variety of foliar fungal diseases of plants. In the test, a composition comprising an aqueous solution or suspension of the test compound was sprayed on to the foliage or uninfected plants; the soil in which the plants were growing was also drenched with the composition. The compositions used for spraying and drencing contained 100 parts per million (ppm.) of the test compound except where otherwise stated in the table of results below. After spraying and drenching, the plants were then exposed to infection with the diseases it was desired to control, along with control plants not treated with the compound. After a period of days, depending upon the particular disease, the extent of the disease was visually assessed, as a percentage of the disease established upon the control plants which had not been treated with the compound under test, according to the grading scheme below
In Table 2 below the names of the disease is given in the first column, and in the second column is given the time which elapsed between exposing the plants to infection and assessing the amount of disease.

[17] = tested on: Agriolimax reticulatus (slugs); experiment: Molluscicidal activity test; format: in vivo, Agriolimax reticulatus (Mull); settings: pellet with 4% by weight; 6 days; 10°C
Method in brief: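 Compound was applied to a calf feeding pellet at 4% by weight active ingredient after 24 h air drying. Two replicates, each of 2 slugs starved 24 h, were kept with a moist filter paper at 10°C, and kill was assessed after 6 days.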

Lettuce = experiment: Herbicidal test, pre- and post-emergence; format: in vivo; settings: 10 kg/ha; scale 0 to 3 (complete kill)
Tomato = experiment: Herbicidal test, pre- and post-emergence; format: in vivo; settings: 10 kg/ha; scale 0 to 3 (complete kill)
Wheat = experiment: Herbicidal test, pre- and post-emergence; format: in vivo; settings: 10 kg/ha; scale 0 to 3 (complete kill)
Maize = experiment: Herbicidal test, pre- and post-emergence; format: in vivo; settings: 10 kg/ha; scale 0 to 3 (complete kill)

Structure (SMILES) | Amount of disease grading, disease C (Table 4) [3] | Amount of disease grading, disease D (Table 4) (Uncinula necator (vine)) | Mortality grading (kill) [5] | Mortality grading (kill) [6] | Mortality grading (kill) (Aphis fabae) | Mortality grading (kill) (Megoura viceae) | Mortality grading (kill) [7] | Mortality grading (kill) [8] | Mortality grading (kill), contact test [9] | Mortality grading (kill) [10] | Mortality grading (kill) [11] | Mortality grading (kill) [12] | Mortality grading (kill) [13] | Antibacterial activity grading B1 [14] | Antibacterial activity grading B2 [15] | Antibacterial activity grading B3 (Xanthomonas malvacearum) | Antibacterial activity grading B4 (Erwinia carotovora) | Antibacterial activity grading B5 (Xanthomonas oryzae) | Antibacterial activity grading B6 (Pseudomonas syringae) | Antibacterial activity grading B7 (Streptomyces scabies) | other results
O=[N+]([O-])c1cc(Cl)c(Nc2c(Cl)c(F)nc(F)c2Cl)cc1Cl [Compound 24, 3,5-Dichloro-2,6-difluoro-4(2,5-dichloro-4nitro-anilino)pyridine] | 3 (0 to 5) | 3 (0 to 5) | 3 (3 represents over 90% kill) | 0 (O represents less than 30% kill) | 0 (O represents less than 30% kill) | 0 (O represents less than 30% kill) | 3 (3 represents over 90% kill) | 0 (O represents less than 30% kill) | 1 (1 represents 30 - 49% kill) | 0 (O represents less than 30% kill) | 0 (key: O represents less than 30% kill; 1 represents 30 - 49% kill; 2 represents 60 - 90% kill; 3 represents over 90% kill; C indicates a chemosterilant effect.; A indicates an antifeeding effect.) | 0 (key: O represents less than 30% kill; 1 represents 30 - 49% kill; 2 represents 60 - 90% kill; 3 represents over 90% kill; C indicates a chemosterilant effect.; A indicates an antifeeding effect.) | 0 (O represents less than 30% kill) | 3 (0 to 5) | 3 (0 to 5) | 3 (0 to 5) | 3 (0 to 5) | 3 (0 to 5) | 3 (0 to 5) | 3 (0 to 5) | Amount of disease grading, disease A (Table 4) [1]: 0 (61 to 100); Amount of disease grading, disease B (Table 4) [2]: 3 (0 to 5); Amount of disease grading, disease E (Table 4) [4]: 0 (61 to 100)
N#Cc1c(F)c(F)c(Nc2c(Cl)c(F)nc(F)c2Cl)c(F)c1C#N [Compound 33, 3,5-Dichloro-4(3,4-dicyano-2,5,6-trifluoroanilino) 2,6-difluoropyridine] | 3 (0 to 5) | 2 (6 to 25) | 3 (3 represents over 90% kill) | 3 (3 represents over 90% kill) | 0 (O represents less than 30% kill) | 0 (O represents less than 30% kill) | 0 (O represents less than 30% kill) | 2 (2 represents 60 - 90% kill) |  | 3 (3 represents over 90% kill) | 1 (key: O represents less than 30% kill; 1 represents 30 - 49% kill; 2 represents 60 - 90% kill; 3 represents over 90% kill; C indicates a chemosterilant effect.; A indicates an antifeeding effect.) | 0 (key: O represents less than 30% kill; 1 represents 30 - 49% kill; 2 represents 60 - 90% kill; 3 represents over 90% kill; C indicates a chemosterilant effect.; A indicates an antifeeding effect.) | 0 (O represents less than 30% kill) | 3 (0 to 5) | 3 (0 to 5) | 3 (0 to 5) | 3 (0 to 5) | 3 (0 to 5) | 3 (0 to 5) | 3 (0 to 5) | Amount of disease grading, disease A (Table 4) [1]: 2 (6 to 25); Amount of disease grading, disease B (Table 4) [2]: 3 (0 to 5); Amount of disease grading, disease E (Table 4) [4]: 3 (0 to 5)
COc1nc(F)c(Cl)c(Nc2c(F)c(F)c(C#N)c(F)c2F)c1Cl [Compound 21, 2-Fluoro-3,5-dichloro-6methoxy-4(4-cyano-2,3,5,6-tetrafluoroanilino)pyridine] |  |  | 0 (O represents less than 30% kill) | 0 (O represents less than 30% kill) | 0 (O represents less than 30% kill) | 0 (O represents less than 30% kill) | 3 (3 represents over 90% kill) | 0 (O represents less than 30% kill) | 2 (2 represents 60 - 90% kill) | 0 (O represents less than 30% kill) | 1 (key: O represents less than 30% kill; 1 represents 30 - 49% kill; 2 represents 60 - 90% kill; 3 represents over 90% kill; C indicates a chemosterilant effect.; A indicates an antifeeding effect.) | 0 (key: O represents less than 30% kill; 1 represents 30 - 49% kill; 2 represents 60 - 90% kill; 3 represents over 90% kill; C indicates a chemosterilant effect.; A indicates an antifeeding effect.) |  | 2 (6 to 25) | 3 (0 to 5) | 3 (0 to 5) | 3 (0 to 5) | 2 (6 to 25) | 3 (0 to 5) | 3 (0 to 5) | Amount of disease grading, disease A [1]: 3 (0 to 5); Amount of disease grading, disease C [3]: 3 (0 to 5); Amount of disease grading, disease E [4]: 3 (0 to 5); Amount of disease grading, disease G [16]: 3 (0 to 5)
O=[N+]([O-])c1cc(Cl)cc([N+](=O)[O-])c1Nc1c(Cl)c(F)nc(F)c1Cl [Compound 29, 3,5-Dichloro-2,6-difluoro-4(4-chloro-2,6-dinitroanilino)pyridine] | 3 (0 to 5) | 3 (0 to 5) | 3 (3 represents over 90% kill) |  | 3 (3 represents over 90% kill) | 3 (3 represents over 90% kill) | 3 (3 represents over 90% kill) | 0 (O represents less than 30% kill) | 0 (O represents less than 30% kill) | 0 (O represents less than 30% kill) | 0 (key: O represents less than 30% kill; 1 represents 30 - 49% kill; 2 represents 60 - 90% kill; 3 represents over 90% kill; C indicates a chemosterilant effect.; A indicates an antifeeding effect.) | 0 (key: O represents less than 30% kill; 1 represents 30 - 49% kill; 2 represents 60 - 90% kill; 3 represents over 90% kill; C indicates a chemosterilant effect.; A indicates an antifeeding effect.) | 0 (O represents less than 30% kill) | 3 (0 to 5) | 3 (0 to 5) | 3 (0 to 5) | 3 (0 to 5) | 3 (0 to 5) | 3 (0 to 5) | 3 (0 to 5) | % Kill of slugs [17]: 50%; Damage to plants, post-emergence (Lettuce): 0; Damage to plants, pre-emergence (Lettuce): 3; Damage to plants, post-emergence (Tomato): 0; Damage to plants, pre-emergence (Tomato): 3; Damage to plants, post-emergence (Wheat): 0; Damage to plants, pre-emergence (Wheat): 3; Damage to plants, post-emergence (Maize): 0; Damage to plants, pre-emergence (Maize): 0
